Literature values in EP4119941A1, “HEMOGLOBIN ASSAY METHOD” (Sekisui Medical Co., Ltd., priority 2020, dated 2021).

Details: at 25°C

## O=S(=O)(O)CCNC(CO)(CO)CO [TES, N-tris(hydroxymethyl)methyl-2-aminoethanesulfonic acid]
  pKa: 7.55
